Assay results: the kinase profiling compilation of Christmann-Franck et al. (2016)

Legend:
Test in all cases: radiometric filter-binding kinase assay, Kinase HotSpot
Settings in all cases: compound 0.5 µM; ATP 10 µM
[1] = molecular target: ABL1 (human) (UniProt P00519)
[2] = molecular target: ADRBK2 (human) (UniProt P35626)
[3] = molecular target: CAMK2D (human) (UniProt Q13557)
[4] = molecular target: CLK1 (human) (UniProt P49759)
[5] = molecular target: CLK3 (human) (UniProt P49761)
[6] = molecular target: EPHA8 (human) (UniProt P29322)
[7] = molecular target: EPHB1 (human) (UniProt P54762)
[8] = molecular target: EPHB2 (human) (UniProt P29323)
[9] = molecular target: ERBB2 (human) (UniProt P04626)
[10] = molecular target: GRK5 (human) (UniProt P34947)
[11] = molecular target: GRK7 (human) (UniProt Q8WTQ7)
[12] = molecular target: INSRR (human) (UniProt P14616)
[13] = molecular target: ITK (human) (UniProt Q08881)
[14] = molecular target: LCK (human) (UniProt P06239)
[15] = molecular target: LTK (human) (UniProt P29376)
[16] = molecular target: MAP2K1 (human) (UniProt Q02750)
[17] = molecular target: MAPKAPK5 (human) (UniProt Q8IW41)
[18] = molecular target: MARK1 (human) (UniProt Q9P0L2)
[19] = molecular target: MST1R (human) (UniProt Q04912)
[20] = molecular target: NEK11 (human) (UniProt Q8NG66)
[21] = molecular target: NEK3 (human) (UniProt P51956)
[22] = molecular target: NEK7 (human) (UniProt Q8TDX7)
[23] = molecular target: NTRK1 (human) (UniProt P04629)
[24] = molecular target: PAK4 (human) (UniProt O96013)
[25] = molecular target: PASK (human) (UniProt Q96RG2)
[26] = molecular target: PDPK1 (human) (UniProt O15530)
[27] = molecular target: PHKG1 (human) (UniProt Q16816)
[28] = molecular target: PLK2 (human) (UniProt Q9NYY3)
[29] = molecular target: PRKCB2 (human) (UniProt P05771)
[30] = molecular target: PRKD1 (human) (UniProt Q15139)
[31] = molecular target: PRKD2 (human) (UniProt Q9BZL6)
[32] = molecular target: PRKX (human) (UniProt P51817)
[33] = molecular target: ROCK2 (human) (UniProt O75116)
[34] = molecular target: RPS6KA3 KD1 KD2 (human) (UniProt P51812)
[35] = molecular target: RPS6KB1 (human) (UniProt P23443)
[36] = molecular target: SGK3 (human) (UniProt Q96BR1)
[37] = molecular target: SRPK3 (human) (UniProt Q9UPE1)
[38] = molecular target: STK4 (human) (UniProt Q13043)
[39] = molecular target: TAOK1 (human) (UniProt Q7L7X3)
[40] = molecular target: TEK (human) (UniProt Q02763)
[41] = molecular target: TTK (human) (UniProt P33981)
[42] = molecular target: TYRO3 (human) (UniProt Q06418)

Chain of RPS6KA3 KD1 KD2 (human) (P51812 whole entry, looked up): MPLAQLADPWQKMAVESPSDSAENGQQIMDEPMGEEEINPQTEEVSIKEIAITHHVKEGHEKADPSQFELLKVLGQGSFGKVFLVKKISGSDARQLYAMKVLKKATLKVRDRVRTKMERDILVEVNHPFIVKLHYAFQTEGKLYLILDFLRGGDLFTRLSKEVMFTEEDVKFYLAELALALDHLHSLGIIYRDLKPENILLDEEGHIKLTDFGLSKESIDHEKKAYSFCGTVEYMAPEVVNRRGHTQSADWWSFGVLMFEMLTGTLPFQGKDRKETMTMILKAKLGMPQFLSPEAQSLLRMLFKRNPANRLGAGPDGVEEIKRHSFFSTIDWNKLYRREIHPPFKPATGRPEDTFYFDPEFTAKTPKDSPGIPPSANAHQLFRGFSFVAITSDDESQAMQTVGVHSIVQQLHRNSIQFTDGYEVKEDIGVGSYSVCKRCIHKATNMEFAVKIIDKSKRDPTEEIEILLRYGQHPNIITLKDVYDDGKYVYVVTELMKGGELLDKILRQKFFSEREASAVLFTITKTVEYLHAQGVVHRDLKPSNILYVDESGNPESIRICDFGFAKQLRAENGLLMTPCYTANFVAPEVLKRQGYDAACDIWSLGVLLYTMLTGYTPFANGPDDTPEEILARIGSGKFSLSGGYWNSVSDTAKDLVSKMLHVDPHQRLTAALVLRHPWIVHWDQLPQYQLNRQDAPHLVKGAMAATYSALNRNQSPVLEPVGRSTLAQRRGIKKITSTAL
Chain of INSRR (human) (P14616 whole entry, looked up): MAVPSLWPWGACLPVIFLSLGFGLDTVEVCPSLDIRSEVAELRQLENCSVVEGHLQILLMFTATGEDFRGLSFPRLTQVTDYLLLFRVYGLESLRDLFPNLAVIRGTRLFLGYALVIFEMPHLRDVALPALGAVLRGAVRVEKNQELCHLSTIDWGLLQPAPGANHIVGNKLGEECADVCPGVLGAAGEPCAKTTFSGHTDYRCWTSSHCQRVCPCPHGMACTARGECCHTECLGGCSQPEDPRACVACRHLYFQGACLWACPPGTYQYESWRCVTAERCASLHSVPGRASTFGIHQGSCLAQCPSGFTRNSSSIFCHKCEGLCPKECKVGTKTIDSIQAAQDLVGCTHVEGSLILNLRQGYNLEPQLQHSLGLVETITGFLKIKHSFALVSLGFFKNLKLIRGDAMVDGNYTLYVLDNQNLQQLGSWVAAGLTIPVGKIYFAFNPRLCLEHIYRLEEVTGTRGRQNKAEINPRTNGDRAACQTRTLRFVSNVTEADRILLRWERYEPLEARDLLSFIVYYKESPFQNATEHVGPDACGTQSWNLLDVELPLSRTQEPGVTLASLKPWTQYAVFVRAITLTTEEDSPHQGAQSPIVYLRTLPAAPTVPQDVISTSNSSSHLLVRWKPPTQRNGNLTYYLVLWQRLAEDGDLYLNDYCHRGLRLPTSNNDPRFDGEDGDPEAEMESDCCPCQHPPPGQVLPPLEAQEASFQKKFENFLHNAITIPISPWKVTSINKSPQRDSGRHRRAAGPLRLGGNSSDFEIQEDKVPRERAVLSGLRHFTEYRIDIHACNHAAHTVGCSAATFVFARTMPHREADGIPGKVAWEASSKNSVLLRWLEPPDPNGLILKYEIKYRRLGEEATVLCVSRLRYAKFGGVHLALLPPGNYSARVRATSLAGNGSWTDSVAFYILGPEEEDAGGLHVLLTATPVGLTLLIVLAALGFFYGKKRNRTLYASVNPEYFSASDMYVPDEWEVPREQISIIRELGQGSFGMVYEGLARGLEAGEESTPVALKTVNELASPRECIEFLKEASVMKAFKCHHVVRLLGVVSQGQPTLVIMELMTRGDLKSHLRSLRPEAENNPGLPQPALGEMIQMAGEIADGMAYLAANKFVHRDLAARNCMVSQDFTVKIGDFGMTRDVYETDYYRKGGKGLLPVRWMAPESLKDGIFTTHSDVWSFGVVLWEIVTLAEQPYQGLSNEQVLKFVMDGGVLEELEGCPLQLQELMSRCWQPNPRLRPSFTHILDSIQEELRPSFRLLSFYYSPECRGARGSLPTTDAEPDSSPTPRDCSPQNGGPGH
Chain of PLK2 (human) (Q9NYY3 whole entry, looked up): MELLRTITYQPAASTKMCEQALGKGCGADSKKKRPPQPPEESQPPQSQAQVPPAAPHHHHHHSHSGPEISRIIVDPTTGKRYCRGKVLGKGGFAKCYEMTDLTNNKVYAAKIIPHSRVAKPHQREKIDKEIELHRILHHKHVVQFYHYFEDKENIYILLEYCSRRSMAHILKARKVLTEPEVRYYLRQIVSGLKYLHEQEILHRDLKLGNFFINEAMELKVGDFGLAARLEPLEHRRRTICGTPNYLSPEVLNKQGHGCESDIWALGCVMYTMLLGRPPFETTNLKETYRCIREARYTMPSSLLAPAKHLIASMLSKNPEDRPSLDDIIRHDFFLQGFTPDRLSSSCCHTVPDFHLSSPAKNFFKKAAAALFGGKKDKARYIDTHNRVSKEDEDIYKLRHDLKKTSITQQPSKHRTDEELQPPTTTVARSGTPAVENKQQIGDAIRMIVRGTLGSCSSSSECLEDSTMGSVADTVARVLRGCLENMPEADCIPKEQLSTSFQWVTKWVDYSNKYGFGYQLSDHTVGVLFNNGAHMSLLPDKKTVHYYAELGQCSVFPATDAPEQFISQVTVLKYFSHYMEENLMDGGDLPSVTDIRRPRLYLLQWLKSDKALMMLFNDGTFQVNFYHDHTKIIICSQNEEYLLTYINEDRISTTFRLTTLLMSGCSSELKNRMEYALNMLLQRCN
Chain of CLK3 (human) (P49761 whole entry, looked up): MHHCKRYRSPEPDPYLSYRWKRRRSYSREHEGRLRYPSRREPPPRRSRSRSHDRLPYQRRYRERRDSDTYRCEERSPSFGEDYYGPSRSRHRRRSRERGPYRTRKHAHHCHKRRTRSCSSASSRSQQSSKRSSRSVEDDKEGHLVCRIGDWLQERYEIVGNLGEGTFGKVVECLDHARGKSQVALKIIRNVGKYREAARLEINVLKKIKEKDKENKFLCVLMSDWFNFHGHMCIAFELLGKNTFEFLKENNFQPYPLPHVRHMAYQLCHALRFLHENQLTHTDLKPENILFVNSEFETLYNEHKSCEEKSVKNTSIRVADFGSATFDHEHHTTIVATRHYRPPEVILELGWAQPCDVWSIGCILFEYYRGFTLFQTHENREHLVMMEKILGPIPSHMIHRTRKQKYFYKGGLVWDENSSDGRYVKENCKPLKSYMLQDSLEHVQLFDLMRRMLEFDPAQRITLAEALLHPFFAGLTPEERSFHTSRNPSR
Chain of NEK7 (human) (Q8TDX7 whole entry, looked up): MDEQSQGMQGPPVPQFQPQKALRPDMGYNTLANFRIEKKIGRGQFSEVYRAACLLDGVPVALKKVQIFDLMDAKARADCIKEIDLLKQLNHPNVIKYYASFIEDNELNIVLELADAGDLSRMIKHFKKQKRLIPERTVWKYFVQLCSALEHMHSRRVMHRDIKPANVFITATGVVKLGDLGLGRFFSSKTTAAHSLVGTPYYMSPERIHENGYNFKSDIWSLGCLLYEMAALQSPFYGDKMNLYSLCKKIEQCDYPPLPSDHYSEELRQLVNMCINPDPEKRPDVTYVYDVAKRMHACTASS
Chain of PDPK1 (human) (O15530 whole entry, looked up): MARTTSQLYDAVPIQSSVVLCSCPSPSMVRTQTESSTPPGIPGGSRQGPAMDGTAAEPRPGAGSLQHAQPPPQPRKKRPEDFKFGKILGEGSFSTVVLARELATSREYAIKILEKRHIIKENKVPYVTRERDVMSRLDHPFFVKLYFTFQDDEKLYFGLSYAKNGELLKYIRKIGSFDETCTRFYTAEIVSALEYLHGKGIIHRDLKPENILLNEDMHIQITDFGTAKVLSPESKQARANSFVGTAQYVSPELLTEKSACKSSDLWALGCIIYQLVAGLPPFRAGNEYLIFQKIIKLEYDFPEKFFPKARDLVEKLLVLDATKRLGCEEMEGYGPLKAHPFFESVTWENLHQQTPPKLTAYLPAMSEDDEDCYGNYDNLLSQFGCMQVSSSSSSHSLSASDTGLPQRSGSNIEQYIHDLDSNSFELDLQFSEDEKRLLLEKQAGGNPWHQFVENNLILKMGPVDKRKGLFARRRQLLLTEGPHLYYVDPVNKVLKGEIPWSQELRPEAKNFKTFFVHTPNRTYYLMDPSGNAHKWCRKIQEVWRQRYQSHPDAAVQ
Chain of PRKD1 (human) (Q15139 whole entry, looked up): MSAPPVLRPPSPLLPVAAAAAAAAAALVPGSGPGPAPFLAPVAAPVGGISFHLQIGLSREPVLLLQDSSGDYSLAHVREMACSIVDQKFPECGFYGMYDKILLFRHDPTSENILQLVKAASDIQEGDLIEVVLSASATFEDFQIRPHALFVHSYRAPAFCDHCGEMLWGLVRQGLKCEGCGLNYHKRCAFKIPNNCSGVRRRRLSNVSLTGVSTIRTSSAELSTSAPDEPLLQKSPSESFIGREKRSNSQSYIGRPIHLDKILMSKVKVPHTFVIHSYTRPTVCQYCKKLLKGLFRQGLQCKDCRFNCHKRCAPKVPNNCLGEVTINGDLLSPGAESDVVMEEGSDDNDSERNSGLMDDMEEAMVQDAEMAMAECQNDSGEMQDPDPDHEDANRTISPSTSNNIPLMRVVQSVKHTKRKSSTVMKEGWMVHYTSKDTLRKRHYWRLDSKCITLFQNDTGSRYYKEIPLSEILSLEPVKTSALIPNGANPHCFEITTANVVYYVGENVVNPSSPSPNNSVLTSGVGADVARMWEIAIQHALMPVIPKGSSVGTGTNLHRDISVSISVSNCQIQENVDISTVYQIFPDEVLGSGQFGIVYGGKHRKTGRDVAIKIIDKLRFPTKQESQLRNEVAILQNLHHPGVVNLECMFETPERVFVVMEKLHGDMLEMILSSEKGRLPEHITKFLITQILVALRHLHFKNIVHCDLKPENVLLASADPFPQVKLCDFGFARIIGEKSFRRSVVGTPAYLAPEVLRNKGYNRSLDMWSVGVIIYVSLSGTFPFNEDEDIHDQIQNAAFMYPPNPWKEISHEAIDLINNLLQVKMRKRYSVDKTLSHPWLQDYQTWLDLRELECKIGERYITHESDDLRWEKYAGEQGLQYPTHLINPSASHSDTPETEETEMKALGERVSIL

Compound: O=C1Nc2ccc(Br)cc2/C1=C\c1cc2c([nH]1)CCCC2
- residual activity [1]: 91.8%
- residual activity [2]: 89.9%
- residual activity [3]: 84.2%
- residual activity [4]: 97.2%
- residual activity [5]: 101%
- residual activity [6]: 94.5%
- residual activity [7]: 85.5%
- residual activity [8]: 85.4%
- residual activity [9]: 115%
- residual activity [10]: 106%
- residual activity [11]: 85.2%
- residual activity [12]: 94.8%
- residual activity [13]: 87.5%
- residual activity [14]: 84.5%
- residual activity [15]: 70.6%
- residual activity [16]: 84.8%
- residual activity [17]: 90.6%
- residual activity [18]: 69%
- residual activity [19]: 88.3%
- residual activity [20]: 111%
- residual activity [21]: 86.7%
- residual activity [22]: 103%
- residual activity [23]: 51.8%
- residual activity [24]: 76.8%
- residual activity [25]: 98.9%
- residual activity [26]: 95.3%
- residual activity [27]: 60.2%
- residual activity [28]: 102%
- residual activity [29]: 85.5%
- residual activity [30]: 93.8%
- residual activity [31]: 95.8%
- residual activity [32]: 97.2%
- residual activity [33]: 92.8%
- residual activity [34]: 80.9%
- residual activity [35]: 91.9%
- residual activity [36]: 97.6%
- residual activity [37]: 77.8%
- residual activity [38]: 44.1%
- residual activity [39]: 92.3%
- residual activity [40]: 98.2%
- residual activity [41]: 95.1%
- residual activity [42]: 104%

Compound: O=C1c2ccccc2-c2nc3nnnn3nc21
- residual activity [1]: 89.7%
- residual activity [2]: 106%
- residual activity [3]: 93%
- residual activity [4]: 79.4%
- residual activity [5]: 81.2%
- residual activity [6]: 92.6%
- residual activity [7]: 89.5%
- residual activity [8]: 86.1%
- residual activity [9]: 22.2%
- residual activity [10]: 74.3%
- residual activity [11]: 78.1%
- residual activity [12]: 86.7%
- residual activity [13]: 71.5%
- residual activity [14]: 70.5%
- residual activity [15]: 177%
- residual activity [16]: 88.7%
- residual activity [17]: 66.9%
- residual activity [18]: 98.2%
- residual activity [19]: 93.6%
- residual activity [20]: 88%
- residual activity [21]: 111%
- residual activity [22]: 83.6%
- residual activity [23]: 76.6%
- residual activity [24]: 91.4%
- residual activity [25]: 73.4%
- residual activity [26]: 79%
- residual activity [27]: 92.5%
- residual activity [28]: 37.3%
- residual activity [29]: 29.3%
- residual activity [30]: 86.5%
- residual activity [31]: 91.7%
- residual activity [32]: 94.3%
- residual activity [33]: 81.7%
- residual activity [34]: 75.1%
- residual activity [35]: 85.8%
- residual activity [36]: 90.4%
- residual activity [37]: 89.4%
- residual activity [38]: 87.8%
- residual activity [39]: 90.2%
- residual activity [40]: 4.27%
- residual activity [41]: 125%
- residual activity [42]: 33.3%

Compound: O=C1C(Cl)=C(N2C(=O)CCC2=O)C(=O)c2ccccc21
- residual activity [1]: 103%
- residual activity [2]: 103%
- residual activity [3]: 109%
- residual activity [4]: 103%
- residual activity [5]: 114%
- residual activity [6]: 107%
- residual activity [7]: 97.2%
- residual activity [8]: 98.7%
- residual activity [9]: 95.4%
- residual activity [10]: 91.5%
- residual activity [11]: 109%
- residual activity [12]: 96.9%
- residual activity [13]: 87.5%
- residual activity [14]: 106%
- residual activity [15]: 100%
- residual activity [16]: 76.5%
- residual activity [17]: 73.6%
- residual activity [18]: 99.3%
- residual activity [19]: 94.5%
- residual activity [20]: 101%
- residual activity [21]: 102%
- residual activity [22]: 95.4%
- residual activity [23]: 97%
- residual activity [24]: 114%
- residual activity [25]: 103%
- residual activity [26]: 100%
- residual activity [27]: 96.5%
- residual activity [28]: 96%
- residual activity [29]: 108%
- residual activity [30]: 104%
- residual activity [31]: 95.7%
- residual activity [32]: 103%
- residual activity [33]: 91.5%
- residual activity [34]: 101%
- residual activity [35]: 101%
- residual activity [36]: 103%
- residual activity [37]: 93.6%
- residual activity [38]: 89.1%
- residual activity [39]: 83.1%
- residual activity [40]: 96.7%
- residual activity [41]: 108%
- residual activity [42]: 114%

Compound: Cc1nc(-c2ccccc2)c(-c2ccncc2)o1
- residual activity [1]: 100%
- residual activity [2]: 101%
- residual activity [3]: 94.2%
- residual activity [4]: 105%
- residual activity [5]: 90.6%
- residual activity [6]: 78.8%
- residual activity [7]: 107%
- residual activity [8]: 99.8%
- residual activity [9]: 105%
- residual activity [10]: 104%
- residual activity [11]: 98.3%
- residual activity [12]: 101%
- residual activity [13]: 97.1%
- residual activity [14]: 99.7%
- residual activity [15]: 107%
- residual activity [16]: 90.7%
- residual activity [17]: 99.2%
- residual activity [18]: 92.5%
- residual activity [19]: 95.9%
- residual activity [20]: 76.7%
- residual activity [21]: 93.7%
- residual activity [22]: 102%
- residual activity [23]: 94.3%
- residual activity [24]: 101%
- residual activity [25]: 98.1%
- residual activity [26]: 96.9%
- residual activity [27]: 96.1%
- residual activity [28]: 106%
- residual activity [29]: 88.4%
- residual activity [30]: 95.6%
- residual activity [31]: 97.7%
- residual activity [32]: 101%
- residual activity [33]: 97.6%
- residual activity [34]: 103%
- residual activity [35]: 92.8%
- residual activity [36]: 96.4%
- residual activity [37]: 103%
- residual activity [38]: 104%
- residual activity [39]: 98.5%
- residual activity [40]: 101%
- residual activity [41]: 100%
- residual activity [42]: 109%
